# According to patent US11524968B2, “Heterocyclic compound as a protein kinase inhibitor” (HK inno.N Corporation, priority 2017, dated 2022):
# Target: JAK1 (Homo sapiens (Human), UniProt P23458)
# Assay: Analysis of JAK1 activity inhibition ability (ADP-Glo Kinase Assay)
# Type: biochemical
# Settings: JAK1 enzyme, ADP-Glo luminescence, ATP 250 uM, IRS-itide substrate, 30° C. 40 minutes; read-out: IC50
# Summary of the method: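 JAK1 enzyme, IRS-itide substrate (40 ng/mL) and 250 uM ATP, both as prepared in kinase buffer (Tris-HCl pH 7.5, MgCl2, BSA, DTT), reacted with compound 40 min at 30 °C. ADP formed was detected by ADP-Glo luminescence; IC50 is the concentration giving 50% inhibition versus control.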
# JAK1, sequence (P23458 whole entry): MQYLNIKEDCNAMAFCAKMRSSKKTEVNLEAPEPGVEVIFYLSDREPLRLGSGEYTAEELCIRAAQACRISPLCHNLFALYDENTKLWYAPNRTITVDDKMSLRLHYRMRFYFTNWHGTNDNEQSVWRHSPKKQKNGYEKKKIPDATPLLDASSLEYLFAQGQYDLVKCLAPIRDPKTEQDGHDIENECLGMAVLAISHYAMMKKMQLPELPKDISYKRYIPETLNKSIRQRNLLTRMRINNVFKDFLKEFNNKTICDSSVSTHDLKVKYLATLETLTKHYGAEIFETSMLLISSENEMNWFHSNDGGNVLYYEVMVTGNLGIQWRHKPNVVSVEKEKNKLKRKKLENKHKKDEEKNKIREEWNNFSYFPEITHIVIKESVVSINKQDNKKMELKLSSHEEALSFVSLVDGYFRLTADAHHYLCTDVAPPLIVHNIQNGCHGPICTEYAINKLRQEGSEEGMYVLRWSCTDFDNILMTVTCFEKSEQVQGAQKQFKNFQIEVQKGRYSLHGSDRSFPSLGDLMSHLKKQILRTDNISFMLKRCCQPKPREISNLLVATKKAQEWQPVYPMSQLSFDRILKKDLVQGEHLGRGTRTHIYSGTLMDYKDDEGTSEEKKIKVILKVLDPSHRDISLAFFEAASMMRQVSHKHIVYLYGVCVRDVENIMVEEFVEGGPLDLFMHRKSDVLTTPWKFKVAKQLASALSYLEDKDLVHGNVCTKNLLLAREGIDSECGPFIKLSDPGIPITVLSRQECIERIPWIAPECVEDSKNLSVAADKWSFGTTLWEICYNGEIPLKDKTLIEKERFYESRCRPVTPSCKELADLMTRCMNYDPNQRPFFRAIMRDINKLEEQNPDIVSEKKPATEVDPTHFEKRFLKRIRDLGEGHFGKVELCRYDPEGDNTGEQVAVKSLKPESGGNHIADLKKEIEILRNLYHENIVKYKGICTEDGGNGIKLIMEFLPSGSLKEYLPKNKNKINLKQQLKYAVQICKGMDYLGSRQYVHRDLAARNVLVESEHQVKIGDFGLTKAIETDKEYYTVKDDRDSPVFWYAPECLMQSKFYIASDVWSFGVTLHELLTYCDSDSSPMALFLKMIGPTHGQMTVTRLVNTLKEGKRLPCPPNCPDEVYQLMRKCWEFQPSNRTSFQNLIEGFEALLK
row,SMILES,IC50 [nM]
1,"CCCS(=O)(=O)Nc1ccc(-c2cc(NC(=O)C3CC3)nc3[nH]ccc23)c(C#N)c1 [Example 145, N-(4-(2-cyano-4-(propylsulfonamido)phenyl)-1H-pyrrolo[2,3-b]pyridin-6-yl)cyclopropanecarboxamide]",20 to 200
2,"CCS(=O)(=O)Nc1ccc(-c2cc(NC(=O)C3CC3)nc3[nH]ccc23)cn1 [Example 148, N-(4-(6-(ethylsulfonamido)pyridin-3-yl)-1H-pyrrolo[2,3-b]pyridin-6-yl)cyclopropanecarboxamide]",20 to 200
3,"CCS(=O)(=O)Nc1ccc(-c2cc(NC(=O)C3CC3)nc3[nH]ccc23)nc1F [Example 149, N-(4-(5-(ethylsulfonamido)-6-fluoropyridin-2-yl)-1H-pyrrolo[2,3-b]pyridin-6-yl)cyclopropanecarboxamide]",> 200
4,"CCCS(=O)(=O)Nc1ccc(-c2cc(NC(=O)C3CC3)nc3[nH]ccc23)nc1F [Example 150, N-(4-(6-fluoro-5-(propylsulfonamido)pyridin-2-yl)-1H-pyrrolo[2,3-b]pyridin-6-yl)cyclopropanecarboxamide]",> 200
5,"CCS(=O)(=O)NC1CC=C(c2cc(NC(=O)C3CC3)nc3[nH]ccc23)CC1 (centres unmarked) [Example 151, N-(4-(4-(ethylsulfonamido)cyclohex-1-en-1-yl)-1H-pyrrolo[2,3-b]pyridin-6-yl)cyclopropanecarboxamide]",20 to 200
6,"O=C(Nc1cc(C2=CCC(NS(=O)(=O)C(F)(F)F)CC2)c2cc[nH]c2n1)C1CC1 (centres unmarked) [Example 153, N-(4-(4-((trifluoromethyl)sulfonamido)cyclohex-1-en-1-yl)-1H-pyrrolo[2,3-b]pyridin-6-yl)cyclopropanecarboxamide]",20 to 200
7,"O=C(Nc1cc(C2=CCC(NS(=O)(=O)C3CC3)CC2)c2cc[nH]c2n1)C1CC1 (centres unmarked) [Example 154, N-(4-(4-(cyclopropanesulfonamido)cyclohex-1-en-1-yl)-1H-pyrrolo[2,3-b]pyridin-6-yl)cyclopropanecarboxamide]",20 to 200
8,"N#CC1(CS(=O)(=O)NC2CC=C(c3cc(NC(=O)C4CC4)nc4[nH]ccc34)CC2)CC1 (centres unmarked) [Example 157, N-(4-(4-(((1-cyanocyclopropyl)methyl)sulfonamido)cyclohex-1-en-1-yl)-1H-pyrrolo[2,3-b]pyridin-6-yl)cyclopropanecarboxamide]",< 20
9,"C=CCS(=O)(=O)NC1CC=C(c2cc(NC(=O)C3CC3)nc3[nH]ccc23)CC1 (centres unmarked) [Example 160, N-(4-(4-(allylsulfonamido)cyclohex-1-en-1-yl)-1H-pyrrolo[2,3-b]pyridin-6-yl)cyclopropanecarboxamide]",< 20
10,"O=C(Nc1cc(C2=CCC(NS(=O)(=O)CC3CC3)CC2)c2cc[nH]c2n1)C1CC1 (centres unmarked) [Example 161, N-(4-(4-((cyclopropylmethyl)sulfonamido)cyclohex-1-en-1-yl)-1H-pyrrolo[2,3-b]pyridin-6-yl)cyclopropanecarboxamide]",< 20
11,"O=C(Nc1cc(C2=CCC(NS(=O)(=O)c3ccc(F)c(F)c3)CC2)c2cc[nH]c2n1)C1CC1 (centres unmarked) [Example 162, N-(4-(4-((3,4-difluorophenyl)sulfonamido)cyclohex-1-en-1-yl)-1H-pyrrolo[2,3-b]pyridin-6-yl)cyclopropanecarboxamide]",< 20
12,"O=C(Nc1cc(C2=CCC(NS(=O)(=O)c3cccc(F)c3)CC2)c2cc[nH]c2n1)C1CC1 (centres unmarked) [Example 163, N-(4-(4-((3-fluorophenyl)sulfonamido)cyclohex-1-en-1-yl)-1H-pyrrolo[2,3-b]pyridin-6-yl)cyclopropanecarboxamide]",< 20
13,"N#Cc1ccc(S(=O)(=O)NC2CC=C(c3cc(NC(=O)C4CC4)nc4[nH]ccc34)CC2)cc1 (centres unmarked) [Example 164, N-(4-(4-((4-cyanophenyl)sulfonamido)cyclohex-1-en-1-yl)-1H-pyrrolo[2,3-b]pyridin-6-yl)cyclopropanecarboxamide]",< 20
14,"CCS(=O)(=O)N1CC=C(c2cc(NC(=O)C3CC3)nc3[nH]ccc23)CC1 [Example 166, N-(4-(1-(ethylsulfonyl)-1,2,3,6-tetrahydropyridin-4-yl)-1H-pyrrolo[2,3-b]pyridin-6-yl)cyclopropanecarboxamide]",20 to 200
15,"O=C(Nc1cc(C2=CCN(S(=O)(=O)CCCF)CC2)c2cc[nH]c2n1)C1CC1 [Example 167, N-(4-(1-((3-fluoropropyl)sulfonyl)-1,2,3,6-tetrahydropyridin-4-yl)-1H-pyrrolo[2,3-b]pyridin-6-yl)cyclopropanecarboxamide]",20 to 200
16,"O=C(Nc1cc(C2=CCN(S(=O)(=O)C3CC3)CC2)c2cc[nH]c2n1)C1CC1 [Example 168, N-(4-(1-(cyclopropylsulfonyl)-1,2,3,6-tetrahydropyridin-4-yl)-1H-pyrrolo[2,3-b]pyridin-6-yl)cyclopropanecarboxamide]",20 to 200
17,"O=C(Nc1cc(C2=CCN(S(=O)(=O)CC3CCOCC3)CC2)c2cc[nH]c2n1)C1CC1 [Example 169, N-(4-(1-(((tetrahydro-2H-pyran-4-yl)methyl)sulfonyl)-1,2,3,6-tetrahydropyridin-4-yl)-1H-pyrrolo[2,3-b]pyridin-6-yl)cyclopropanecarboxamide]",> 200
18,"N#CC1(CS(=O)(=O)N2CC=C(c3cc(NC(=O)C4CC4)nc4[nH]ccc34)CC2)CC1 [Example 172, N-(4-(1-(((1-cyanocyclopropyl)methyl)sulfonyl)-1,2,3,6-tetrahydropyridin-4-yl)-1H-pyrrolo[2,3-b]pyridin-6-yl)cyclopropanecarboxamide]",20 to 200
19,"CCS(=O)(=O)N1C2C=C(c3cc(NC(=O)C4CC4)nc4[nH]ccc34)CC1CC2 (centres unmarked) [Example 174, N-(4-(8-(ethylsulfonyl)-8-azabicyclo[3.2.1]oct-2-en-3-yl)-1H-pyrrolo[2,3-b]pyridin-6-yl)cyclopropanecarboxamide]",20 to 200
20,"O=C(Nc1cc(C2=CC3CCC(C2)N3S(=O)(=O)CCCF)c2cc[nH]c2n1)C1CC1 (centres unmarked) [Example 175, N-(4-(8-((3-fluoropropyl)sulfonyl)-8-azabicyclo[3.2.1]oct-2-en-3-yl)-1H-pyrrolo[2,3-b]pyridin-6-yl)cyclopropanecarboxamide]",20 to 200

# Second part, the compound after the results:
row,IC50 [nM],SMILES
1,20 to 200,"CCS(=O)(=O)Nc1ccc(-c2cc(NC(=O)C3CC3)nc3[nH]ccc23)c(C#N)c1 [Example 144, N-(4-(2-cyano-4-(ethylsulfonamido)phenyl)-1H-pyrrolo[2,3-b]pyridin-6-yl)cyclopropanecarboxamide]"
2,> 200,"N#Cc1cc(NS(=O)(=O)c2ccc(F)c(F)c2)ccc1-c1cc(NC(=O)C2CC2)nc2[nH]ccc12 [Example 146, N-(4-(2-cyano-4-((3,4-difluorophenyl)sulfonamido)phenyl)-1H-pyrrolo[2,3-b]pyridin-6-yl)cyclopropanecarboxamide]"
3,> 200,"N#Cc1cc(NS(=O)(=O)CC2(C#N)CC2)ccc1-c1cc(NC(=O)C2CC2)nc2[nH]ccc12 [Example 147, N-(4-(2-cyano-4-(((1-cyanocyclopropyl)methyl)sulfonamido)phenyl)-1H-pyrrolo[2,3-b]pyridin-6-yl)cyclopropanecarboxamide]"
4,20 to 200,"CCCS(=O)(=O)NC1CC=C(c2cc(NC(=O)C3CC3)nc3[nH]ccc23)CC1 (centres unmarked) [Example 152, N-(4-(4-(propylsulfonamido)cyclohex-1-en-1-yl)-1H-pyrrolo[2,3-b]pyridin-6-yl)cyclopropanecarboxamide]"
5,< 20,"N#CCCS(=O)(=O)NC1CC=C(c2cc(NC(=O)C3CC3)nc3[nH]ccc23)CC1 (centres unmarked) [Example 155, N-(4-(4-((2-cyanoethyl)sulfonamido)cyclohex-1-en-1-yl)-1H-pyrrolo[2,3-b]pyridin-6-yl)cyclopropanecarboxamide]"
6,< 20,"N#CCC1(CS(=O)(=O)NC2CC=C(c3cc(NC(=O)C4CC4)nc4[nH]ccc34)CC2)CC1 (centres unmarked) [Example 156, N-(4-(4-(((1-(cyanomethyl)cyclopropyl)methyl)sulfonamido)cyclohex-1-en-1-yl)-1H-pyrrolo[2,3-b]pyridin-6-yl)cyclopropanecarboxamide]"
7,< 20,"N#CCCCS(=O)(=O)NC1CC=C(c2cc(NC(=O)C3CC3)nc3[nH]ccc23)CC1 (centres unmarked) [Example 158, N-(4-(4-((3-cyanopropyl)sulfonamido)cyclohex-1-en-1-yl)-1H-pyrrolo[2,3-b]pyridin-6-yl)cyclopropanecarboxamide]"
8,< 20,"O=C(Nc1cc(C2=CCC(NS(=O)(=O)CCCF)CC2)c2cc[nH]c2n1)C1CC1 (centres unmarked) [Example 159, N-(4-(4-((3-fluoropropyl)sulfonamido)cyclohex-1-en-1-yl)-1H-pyrrolo[2,3-b]pyridin-6-yl)cyclopropanecarboxamide]"
9,< 20,"O=C(Nc1cc(C2=CCC(NS(=O)(=O)C3CCC3)CC2)c2cc[nH]c2n1)C1CC1 (centres unmarked) [Example 165, N-(4-(4-(cyclobutanesulfonamido)cyclohex-1-en-1-yl)-1H-pyrrolo[2,3-b]pyridin-6-yl)cyclopropanecarboxamide]"
10,20 to 200,"N#CCCCS(=O)(=O)N1CC=C(c2cc(NC(=O)C3CC3)nc3[nH]ccc23)CC1 [Example 170, N-(4-(1-((3-cyanopropyl)sulfonyl)-1,2,3,6-tetrahydropyridin-4-yl)-1H-pyrrolo[2,3-b]pyridin-6-yl)cyclopropanecarboxamide]"
11,20 to 200,"N#CCC1(CS(=O)(=O)N2CC=C(c3cc(NC(=O)C4CC4)nc4[nH]ccc34)CC2)CC1 [Example 171, N-(4-(1-(((1-(cyanomethyl)cyclopropyl)methyl)sulfonyl)-1,2,3,6-tetrahydropyridin-4-yl)-1H-pyrrolo[2,3-b]pyridin-6-yl)cyclopropanecarboxamide]"
12,20 to 200,"O=C(Nc1cc(C2=CCN(S(=O)(=O)c3ccc(F)c(F)c3)CC2)c2cc[nH]c2n1)C1CC1 [Example 173, N-(4-(1-((3,4-difluorophenyl)sulfonyl)-1,2,3,6-tetrahydropyridin-4-yl)-1H-pyrrolo[2,3-b]pyridin-6-yl)cyclopropanecarboxamide]"
